From ChEMBL document CHEMBL4819104, “Discovery of 2-amino-3-amido-5-aryl-pyridines as highly potent, orally bioavailable, and efficacious PERK kinase inhibitors” (Bioorg Med Chem Lett, 2021)
In brackets after ≈: the same amount, converted by molar mass. Values belong to the compound of their own block, whether it stands above or below them.

Key:
[1] = biological target: T1, Eukaryotic translation initiation factor 2-alpha kinase 3 (Homo sapiens, UniProt Q9NZJ5); test: Inhibition of human His-tagged PERK expressed in Escherichia coli assessed as eIF2alpha phosphorylation by TR-FRET assay
T1 sequence (Q9NZJ5 whole entry): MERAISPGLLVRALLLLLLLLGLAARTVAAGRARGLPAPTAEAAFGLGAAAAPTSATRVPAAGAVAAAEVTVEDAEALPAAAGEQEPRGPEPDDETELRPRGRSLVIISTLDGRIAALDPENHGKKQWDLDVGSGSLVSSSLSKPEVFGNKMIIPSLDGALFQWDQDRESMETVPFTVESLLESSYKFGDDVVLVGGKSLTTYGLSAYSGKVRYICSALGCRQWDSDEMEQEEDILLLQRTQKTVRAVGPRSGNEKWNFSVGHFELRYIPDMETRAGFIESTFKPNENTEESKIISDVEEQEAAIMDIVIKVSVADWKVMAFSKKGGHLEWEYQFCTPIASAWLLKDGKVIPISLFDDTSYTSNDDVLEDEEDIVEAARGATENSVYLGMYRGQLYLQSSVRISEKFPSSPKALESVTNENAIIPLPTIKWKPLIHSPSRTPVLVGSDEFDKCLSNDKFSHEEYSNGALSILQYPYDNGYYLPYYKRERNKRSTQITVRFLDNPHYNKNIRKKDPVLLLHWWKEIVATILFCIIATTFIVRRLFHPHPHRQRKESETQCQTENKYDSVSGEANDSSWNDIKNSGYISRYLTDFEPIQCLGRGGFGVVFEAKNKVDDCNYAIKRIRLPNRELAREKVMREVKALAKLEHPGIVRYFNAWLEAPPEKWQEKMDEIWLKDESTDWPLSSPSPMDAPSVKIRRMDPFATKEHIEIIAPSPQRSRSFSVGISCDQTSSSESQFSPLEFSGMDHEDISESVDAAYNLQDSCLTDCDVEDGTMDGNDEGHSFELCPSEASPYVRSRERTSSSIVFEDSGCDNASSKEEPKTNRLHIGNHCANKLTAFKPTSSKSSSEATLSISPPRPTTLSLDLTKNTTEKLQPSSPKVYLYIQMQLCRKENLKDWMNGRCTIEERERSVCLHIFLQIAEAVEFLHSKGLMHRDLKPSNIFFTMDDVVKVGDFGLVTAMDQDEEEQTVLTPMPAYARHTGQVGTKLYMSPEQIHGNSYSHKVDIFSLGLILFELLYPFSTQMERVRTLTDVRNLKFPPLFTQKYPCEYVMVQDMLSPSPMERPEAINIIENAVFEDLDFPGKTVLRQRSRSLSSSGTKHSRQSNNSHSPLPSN

[2] = Plasma protein binding in rat; assay type: ADME, cell-free; details: read-out: PPB (converted)
[3] = Plasma protein binding in dog; assay type: ADME, cell-free, Canis lupus familiaris; details: read-out: PPB (converted)
[4] = Aqueous solubility of the compound; assay type: physicochemical; details: buffer
[5] = Plasma protein binding in mouse; assay type: ADME, cell-free; details: read-out: PPB (converted)
[6] = Efflux ratio of apparent permeability in human Caco-2 cells; assay type: ADME, cell-based
[7] = Half life in mouse hepatocytes; assay type: ADME, cell-based, Hepatocyte
[8] = Half life in human hepatocytes; assay type: ADME, cell-based, Hepatocyte
[9] = Apparent permeability of the compound across apical to basolateral side in human Caco-2 cells; assay type: ADME, cell-based; details: read-out: permeability
[10] = Half life in dog hepatocytes; assay type: ADME, cell-based, Canis lupus familiaris, Hepatocyte
[11] = Plasma protein binding in human; assay type: ADME, cell-free; details: read-out: PPB (converted)
[12] = Half life in rat hepatocytes; assay type: ADME, cell-based, Hepatocyte

IC50 [1]: > 1000 nM
Compound: CO[C@@H](C(=O)Nc1ccc(-c2cnc(N)c(C(=O)NC(C)C)c2)c(C)c1)c1ccccc1

IC50 [1]: 5 nM
Compound: Cc1cc(NC(=O)[C@H](O)c2cc(F)cc(F)c2)ccc1-c1cnc(N)c(C(=O)NC(C)C)n1

IC50 [1]: 8 nM
Compound: CNC(=O)c1nc(-c2ccc(NC(=O)[C@H](O)c3cc(F)cc(F)c3)cc2C)cnc1N

IC50 [1]: 23 nM
Compound: CC(C)NC(=O)c1cc(-c2ccc(NC(=O)[C@H](O)c3cc(F)cc(F)c3)cc2)cnc1N

Compound: Cc1cc(NC(=O)Oc2ccccc2)ccc1-c1cnc(N)c(C(=O)NC(C)C)c1
IC50 [1]: > 1000 nM

IC50 [1]: 33 nM
Compound: Cc1cc(NC(=O)[C@H](O)c2cc(F)cc(F)c2)ccc1-c1cnc(N)c(C(=O)NC(C)(C)C)c1

IC50 [1]: 17 nM
Compound: CC(C)NC(=O)c1cc(-c2ccc(NC(=O)[C@H](O)c3cc(F)cc(F)c3)cc2F)cnc1N

fraction unbound [2]: 0.013 | IC50 [1]: 3 nM | fraction unbound [3]: 0.006 | solubility [4]: 13 µM (≈ 5.89 µg/mL) | fraction unbound [5]: 0.006 | efflux ratio [6]: 2.8 | half-life [7]: 0.783 h | half-life [8]: 4.32 h | Papp A→B [9]: 22 ×10⁻⁶ cm/s | half-life [10]: 3.73 h | fraction unbound [11]: 0.004 | half-life [12]: 0.2 h
Compound: Cc1cc(NC(=O)[C@H](O)c2cccc(Cl)c2)ccc1-c1cnc(N)c(C(=O)NC(C)C)c1

IC50 [1]: 26 nM
Compound: Cc1cc(NC(=O)[C@@H](O)c2cc(F)cc(F)c2)ccc1-c1cnc(N)c(C(=O)NC(C)C)c1

IC50 [1]: 241 nM
Compound: Cc1cc(NC(=O)C(O)c2cc(F)cc(F)c2)ccc1-c1cnc(N)c(C(=O)O)c1 (centres undefined)

IC50 [1]: 1350 nM
Compound: Cc1cc(NC(=O)Nc2ccccc2)ccc1-c1cnc(N)c(C(=O)NC(C)C)c1

IC50 [1]: 6 nM
Compound: CCc1cccc([C@@H](O)C(=O)Nc2ccc(-c3cnc(N)c(C(=O)NC(C)C)c3)c(C)c2)c1

IC50 [1]: 130 nM
Compound: Cc1cc(NC(=O)[C@](C)(O)c2ccccc2)ccc1-c1cnc(N)c(C(=O)NC(C)C)c1

IC50 [1]: 159 nM
Compound: Cc1cc(NC(=O)[C@@](C)(O)c2ccccc2)ccc1-c1cnc(N)c(C(=O)NC(C)C)c1

IC50 [1]: 85 nM
Compound: COc1cc(NC(=O)[C@H](O)c2cc(F)cc(F)c2)ccc1-c1cnc(N)c(C(=O)NC(C)C)c1

IC50 [1]: 9 nM
Compound: Cc1cc(NC(=O)[C@H](O)c2ccccc2)ccc1-c1cnc(N)c(C(=O)NC(C)C)c1

IC50 [1]: 129 nM
Compound: CNc1ncc(-c2ccc(NC(=O)[C@H](O)c3cc(F)cc(F)c3)cc2C)cc1C(=O)NC(C)C

IC50 [1]: 27 nM
Compound: Cc1cc(NC(=O)[C@H](O)c2cc(F)cc(F)c2)ccc1-c1cncc(C(=O)NC(C)C)c1

fraction unbound [2]: 0.028 | IC50 [1]: 3 nM | fraction unbound [3]: 0.029 | solubility [4]: 37 µM (≈ 16.7 µg/mL) | fraction unbound [5]: 0.028 | efflux ratio [6]: 4.6 | half-life [7]: 0.8 h | half-life [8]: 7.92 h | Papp A→B [9]: 14 ×10⁻⁶ cm/s | half-life [10]: > 16.7 h | fraction unbound [11]: 0.024 | half-life [12]: 2.18 h
Compound: Cc1cc(NC(=O)[C@H](O)c2cc(F)cc(F)c2)ccc1-c1cnc(N)c(C(=O)NC2CC2)c1

IC50 [1]: 68 nM
Compound: Cc1cc(NC(=O)[C@H](O)c2cc(F)cc(F)c2)ccc1-c1cnc(C)c(C(=O)NC(C)C)c1

IC50 [1]: 19 nM
Compound: Cc1cc(NC(=O)[C@H](O)c2cc(F)cc(F)c2)ccc1-c1cnc(N)c(C(=O)OC(C)C)c1

IC50 [1]: 75 nM
Compound: Cc1cc(NC(=O)[C@H](O)c2cc(F)cc(F)c2)ccc1-c1ccc(N)nc1

IC50 [1]: 1460 nM
Compound: Cc1cc(NC(=O)[C@H](N)c2ccccc2)ccc1-c1cnc(N)c(C(=O)NC(C)C)c1

IC50 [1]: > 1000 nM
Compound: Cc1cc(NC(=O)[C@H](O)c2cc(F)cc(F)c2)ccc1-c1cc(C(=O)NC(C)C)c(N)nn1

IC50 [1]: 14 nM
Compound: CNC(=O)c1cc(-c2ccc(NC(=O)[C@H](O)c3cc(F)cc(F)c3)cc2C)cnc1N

fraction unbound [2]: 0.007 | IC50 [1]: 9 nM | fraction unbound [3]: 0.005 | solubility [4]: 13 µM (≈ 6.17 µg/mL) | fraction unbound [5]: 0.005 | efflux ratio [6]: 2.5 | half-life [7]: 0.4 h | half-life [8]: 9.48 h | Papp A→B [9]: 24 ×10⁻⁶ cm/s | half-life [10]: 7.18 h | fraction unbound [11]: 0.003 | half-life [12]: 0.2 h
Compound: CC(C)NC(=O)c1cc(-c2ccc(NC(=O)[C@H](O)c3cc(F)cc(F)c3)cc2Cl)cnc1N

IC50 [1]: 73 nM
Compound: Cc1cc(NC(=O)Cc2ccccc2)ccc1-c1cnc(N)c(C(=O)NC(C)C)c1

IC50 [1]: 3 nM
Compound: Cc1cccc([C@@H](O)C(=O)Nc2ccc(-c3cnc(N)c(C(=O)NC(C)C)c3)c(C)c2)c1

fraction unbound [2]: 0.033 | IC50 [1]: 4 nM | fraction unbound [3]: 0.029 | solubility [4]: 48 µM (≈ 21.1 µg/mL) | fraction unbound [5]: 0.028 | efflux ratio [6]: 3.3 | half-life [7]: 1.15 h | half-life [8]: 1.97 h | Papp A→B [9]: 14 ×10⁻⁶ cm/s | half-life [10]: 14.6 h | fraction unbound [11]: 0.019 | half-life [12]: 0.567 h
Compound: CCNC(=O)c1cc(-c2ccc(NC(=O)[C@H](O)c3cc(F)cc(F)c3)cc2C)cnc1N

IC50 [1]: 599 nM
Compound: Cc1cc(NC(=O)[C@H](O)c2cc(F)cc(F)c2)ccc1-c1cnc(N)c(C(=O)N(C)C)c1
